Measured values: article PMC6862662, “In Vitro Evaluation and Docking Studies of 5-oxo-5H-furo[3,2-g]chromene-6-carbaldehyde Derivatives as Potential Anti-Alzheimer’s Agents” (International Journal of Molecular Sciences, 2019)
Counter-ions that a name gives are not always drawn.

How the values were obtained:
AChE [1] = target: T1, AChE (Homo sapiens, UniProt P22303); experiment: biochemical; conditions: for IC50: Ellman's method, triplicate, read-out: IC50 (µM) AChE; for SI BChE/AChE: Selectivity index IC50 (BChE)/IC50 (AChE)
T1 construct: purchased BL, purchased through BIOCOM Africa (Pty) Ltd. 768104
T1 sequence (P22303 32-614): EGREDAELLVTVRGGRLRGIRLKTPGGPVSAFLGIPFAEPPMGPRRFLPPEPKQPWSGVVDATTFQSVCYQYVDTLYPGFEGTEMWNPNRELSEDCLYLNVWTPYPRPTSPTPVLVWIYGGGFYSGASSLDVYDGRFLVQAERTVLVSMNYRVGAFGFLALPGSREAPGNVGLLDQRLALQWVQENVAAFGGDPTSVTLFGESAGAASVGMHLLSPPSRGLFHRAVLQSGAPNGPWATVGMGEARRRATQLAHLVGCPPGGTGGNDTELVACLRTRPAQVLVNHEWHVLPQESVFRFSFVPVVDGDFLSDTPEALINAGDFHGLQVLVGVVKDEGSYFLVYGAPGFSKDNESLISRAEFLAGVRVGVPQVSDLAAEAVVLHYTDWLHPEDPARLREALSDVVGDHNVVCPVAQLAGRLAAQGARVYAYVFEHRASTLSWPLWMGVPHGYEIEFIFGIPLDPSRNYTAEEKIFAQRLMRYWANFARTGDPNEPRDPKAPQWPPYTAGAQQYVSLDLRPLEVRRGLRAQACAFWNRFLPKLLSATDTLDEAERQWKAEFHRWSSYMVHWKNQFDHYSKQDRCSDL

BChE [2] = target: T2, BChE (Homo sapiens, UniProt P06276); experiment: biochemical; conditions: for IC50: Ellman's method, triplicate; for SI AChE/BChE: Selectivity index IC50 (AChE)/IC50 (BChE)
T2 construct: purchased cloud-clone corp., purchased through BIOCOM Africa (Pty) Ltd. RPC348Hu0 2_100
T2 sequence (P06276 29-602): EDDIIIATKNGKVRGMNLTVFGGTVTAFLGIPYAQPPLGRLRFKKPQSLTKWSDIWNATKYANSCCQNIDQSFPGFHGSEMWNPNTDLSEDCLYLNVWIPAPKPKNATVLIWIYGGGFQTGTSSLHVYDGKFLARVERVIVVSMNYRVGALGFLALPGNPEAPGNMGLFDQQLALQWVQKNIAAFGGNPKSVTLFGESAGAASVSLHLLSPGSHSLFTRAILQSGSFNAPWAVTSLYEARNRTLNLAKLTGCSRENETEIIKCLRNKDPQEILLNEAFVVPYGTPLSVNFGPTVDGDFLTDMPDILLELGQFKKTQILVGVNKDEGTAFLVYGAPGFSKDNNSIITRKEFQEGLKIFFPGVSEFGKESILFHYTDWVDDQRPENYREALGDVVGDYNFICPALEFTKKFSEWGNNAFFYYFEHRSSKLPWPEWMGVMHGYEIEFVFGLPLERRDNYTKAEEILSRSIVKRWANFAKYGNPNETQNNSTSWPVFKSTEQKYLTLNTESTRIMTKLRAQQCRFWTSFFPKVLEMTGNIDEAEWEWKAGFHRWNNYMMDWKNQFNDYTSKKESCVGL
Description: The mixtures were incubated for 15 min at RT. The reaction was initiated by adding of 10 µL of mixture solution of 5 mM 5,50-dithio-bis-nitrobenzoic acid (DTNB) in 50 mM tris buffer (pH 7.7) and 10 µL acetylthiocholine (ASCh; 5 mM) in 50 mM tris buffer, pH 7.7 into the wells containing the mixtures. The hydrolysis of ASCh was determined by monitoring the formation of the yellow 5-thio-2-nitrobenzoate anion resulting from reaction of DTNB with thiocholines (SCh).
The IC50 values were determined graphically from inhibition curves (inhibitor concentration and absorbance) using the graph pad prism.

[3] = test system: breast cancer cell line MCF-7; experiment: MTT cytotoxicity assay, MCF-7; format: cell-based; conditions: Homo sapiens, MCF7, 24 h, read-out: IC50 against MCF-7 cancer cell line
Description: Briefly, the cells were seeded in 96-well plate at a density of 20 × 10^3 cells per well and then incubated at 37 °C in 5% CO2 to allow cell attachment. […] An equal volume of medium was used as the control treatment. After treatment for 24 h, 10 μL MTT (5 mg/mL) was added to each well and the plate was further incubated for 4 h later. The supernatant was removed and 100 μL of DMSO was added to each well to dissolve the resulting formazan crystals. The absorbance was read at 570 nm using the Varioskan flash microplate spectrophotometer reader. The percentages of cell viability were used to determine the IC50 values.

human recombinant BACE-1 = target: T3, human recombinant BACE-1 (Homo sapiens, UniProt P56817); experiment: β-secretase FRET inhibitory assay; format: biochemical; conditions: triplicate
T3 construct: purchased Pan Vera; host or cells: baculovirus-expressed
T3 sequence (P56817 46-501): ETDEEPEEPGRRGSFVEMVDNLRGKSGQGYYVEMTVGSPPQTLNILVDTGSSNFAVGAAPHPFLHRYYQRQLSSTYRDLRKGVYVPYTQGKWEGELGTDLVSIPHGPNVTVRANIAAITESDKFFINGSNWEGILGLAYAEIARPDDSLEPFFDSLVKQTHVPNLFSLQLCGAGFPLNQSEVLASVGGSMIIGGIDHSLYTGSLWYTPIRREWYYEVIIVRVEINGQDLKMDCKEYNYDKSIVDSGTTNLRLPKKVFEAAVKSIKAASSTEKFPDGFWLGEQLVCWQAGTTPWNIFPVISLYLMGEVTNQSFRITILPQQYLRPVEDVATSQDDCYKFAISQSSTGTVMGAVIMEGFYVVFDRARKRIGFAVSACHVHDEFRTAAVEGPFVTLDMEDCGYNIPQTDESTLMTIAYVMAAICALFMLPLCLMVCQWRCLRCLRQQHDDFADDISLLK

[4] = DPPH radical scavenging activity assay; conditions: triplicate, preliminary
Description: DPPH radical scavenging activity of compounds 2b, 2f, 3b, 3d and 3f was evaluated following the literature method. Ascorbic acid (Sigma Aldrich, Saint Louis, Missouri, USA) was used as a positive control. The test compounds and controls at various concentrations ranging from (0 µM to 40 µM) in DMSO were mixed with a solution of DPPH (0.20 mM) in methanol. The mixtures were incubated in the dark for 45 min and the absorbances were recorded at 512 nm using Varioskan flash microplate spectrophotometer reader. All tests and analyses were run in triplicate and averaged. The inhibition was calculated in terms of percentage using the formula below:(5) DPPH radical scavenged (%)=AbC−AbS/AbC×100, where AbC is absorbance of control and AbS the absorbance of the test sample.

AChE [5] = target: T1, AChE; experiment: Kinetic studies against AChE (Lineweaver–Burk and Dixon plots); format: biochemical; conditions: for Ki: Dixon plots; for mode of inhibition against AChE: Lineweaver–Burk and Dixon plots
Description: (§1) Compounds 2f, 2b, 2f, 3b, 3d and 3f were selected for the kinetic studies with substrate concentrations 0.1, 0.5, 2. 5 and 5 µM for ChEs following procedures described in our previous investigation. The Lineweaver–Burk plots (plots of the inverse of velocity (1/v) against the inverse of the substrate concentration (1/[S])) were used to ascertain the mode of inhibition of these compounds.

BChE [6] = target: T2, BChE; experiment: Kinetic studies against BChE (Lineweaver–Burk and Dixon plots); format: biochemical; conditions: for Ki: Dixon plots; for mode of inhibition against BChE: Lineweaver–Burk and Dixon plots
Description: as §1

Row | SMILES | IC50 (AChE [1]) | SI BChE/AChE (AChE [1]) | IC50 (BChE [2]) | SI AChE/BChE (BChE [2]) | IC50 [3] | IC50 (human recombinant BACE-1) | IC50 [4] | Ki (AChE [5]) | mode of inhibition against AChE (AChE [5]) | Ki (BChE [6]) | mode of inhibition against BChE (BChE [6]) | Vmax against BChE (BChE [6]; Lineweaver–Burk plots, substrate 0–5 µM)
1 | Cc1ccc(-c2cc3cc4c(=O)c(C=NNc5ccc(C(F)(F)F)cc5)coc4cc3o2)cc1 [Compound 3h, 2-(4-p-Tolyl)-6-[(4-trifluoromethylphenyl)hydrazonomethyl]furo[3,2-g]chromen-5-one] | 10.5 ± 0.03 µM | 3.37 | 35.4 ± 0.015 µM | 0.30 | – | – | – | – | – | – | – | –
2 | O=c1c(C=NNc2ccc(C(F)(F)F)cc2)coc2cc3oc(C4=CCCCC4)cc3cc12 [Compound 3i, 2-(Cyclohex-1-en-1-yl)-6-((2-(4-(trifluoromethyl)phenyl)hydrazono)methyl)-5H-furo[3,2-g]chromen-5-one] | 29.8 ± 0.01 µM | 1.04 | 30.9 ± 0.02 µM | 0.96 | – | – | – | – | – | – | – | –
3 | COc1cccc2c1C(=O)c1c(O)c3c(c(O)c1C2=O)C[C@@](O)(C(=O)CO)C[C@@H]3O[C@H]1C[C@H](N)[C@H](O)[C@H](C)O1 [doxorubicin, doxorubicin hydrochloride, reference compound] | – | – | – | – | 1590 ± 10 nM | – | – | – | – | – | – | –
4 | O=Cc1coc2cc3oc(C4=CCCCC4)cc3cc2c1=O [Compound 2i, 2-(Cyclohex-1-en-1-yl)-5-oxo-5H-furo[3,2-g]chromene-6-carbaldehyde] | 22.6 ± 0.03 µM | 1.54 | 34.8 ± 0.02 µM | 0.65 | – | – | – | – | – | – | – | –
5 | O=c1c(C=NNc2ccc(C(F)(F)F)cc2)coc2cc3oc(-c4ccccc4)cc3cc12 [Compound 3a, 2-Phenyl-6-[(4-trifluoromethylphenyl)hydrazonomethyl]furo[3,2-g]chromen-5-one] | 18.4 ± 0.01 µM | 1.43 | 26.3 ± 0.02 µM | 0.70 | – | – | – | – | – | – | – | –
6 | O=Cc1coc2cc3oc(-c4ccccc4)cc3cc2c1=O [Compound 2a, 5-Oxo-2-phenyl-5H-furo[3,2-g]chromene-6-carbaldehyde] | 28.6 ± 0.01 µM | 0.43 | 12.3 ± 0.02 µM | 2.33 | – | – | – | – | – | – | – | –
7 | Cc1ccc(-c2cc3cc4c(=O)c(C=O)coc4cc3o2)cc1 [Compound 2h, 5-Oxo-2-(p-tolyl)-5H-furo[3,2-g]chromene-6-carbaldehyde] | 12.9 ± 0.01 µM | 2.18 | 28.1 ± 0.03 µM | 0.46 | – | – | – | – | – | – | – | –
8 | O=c1c(C=NNc2ccc(C(F)(F)F)cc2)coc2cc3oc(-c4cccc(F)c4)cc3cc12 [Compound 3b, 2-(3-Fluorophenyl)-6-[(4-trifluoromethylphenyl)hydrazonomethyl]furo[3,2-g]chromen-5-one] | 7.6 ± 0.03 µM | 1.47 | 11.2 ± 0.02 µM | 0.68 | – | 17.3 ± 0.03 µM | 21.8 ± 0.02 µM | 580 ± 40 nM | non-competitive | 6.1 ± 0.02 µM | non-competitive | –
9 | O=Cc1coc2cc3oc(-c4cccc(F)c4)cc3cc2c1=O [Compound 2b, 2-(3-Fluorophenyl)-5-oxo-5H-furo[3,2-g]chromene-6-carbaldehyde] | 5.4 ± 0.05 µM | 1.19 | 6.4 ± 0.04 µM | 0.84 | – | 21.6 ± 0.01 µM | 7.4 ± 0.01 µM | 1100 ± 20 nM | non-competitive | 1.7 ± 0.01 µM | non-competitive | –
10 | O=c1c(C=NNc2ccc(C(F)(F)F)cc2)coc2cc3oc(-c4ccc(Cl)cc4)cc3cc12 [Compound 3e, 2-(4-Chlorophenyl)-6-[(4-trifluoromethylphenyl)hydrazonomethyl]furo[3,2-g]chromen-5-one] | 12.9 ± 0.02 µM | 1.91 | 24.6 ± 0.02 µM | 0.52 | – | – | – | – | – | – | – | –
11 | O=Cc1coc2cc3oc(-c4ccc(Cl)cc4)cc3cc2c1=O [Compound 2e, 2-(4-Chlorophenyl)-5-oxo-5H-furo[3,2-g]chromene-6-carbaldehyde] | 21.8 ± 0.03 µM | – | 14 ± 0.04 µM | 1.61 | – | – | – | – | – | – | – | –
12 | O=C1O[C@H]([C@@H](O)CO)C(O)=C1O [Ascorbic acid, reference compound] | – | – | – | – | – | – | 4.8 ± 0.01 µM | – | – | – | – | –
13 | O=c1c(C=NNc2ccc(C(F)(F)F)cc2)coc2cc3oc(-c4ccc(F)cc4)cc3cc12 [Compound 3c, 2-(4-Fluorophenyl)-6-[(4-trifluoromethylphenyl)hydrazonomethyl]furo[3,2-g]chromen-5-one] | 21.2 ± 0.01 µM | 0.67 | 14.1 ± 0.01 µM | 1.49 | – | – | – | – | – | – | – | –
14 | O=c1c(C=NNc2ccc(C(F)(F)F)cc2)coc2cc3oc(-c4cccc(Cl)c4)cc3cc12 [Compound 3d, 2-(3-Chlorophenyl)-6-[(4-trifluoromethylphenyl)hydrazonomethyl]furo[3,2-g]chromen-5-one] | 18.3 ± 0.04 µM | 0.39 | 7.2 ± 0.03 µM | 2.56 | – | 32.8 ± 0.02 µM | 20.9 ± 0.03 µM | 2500 ± 10 nM | non-competitive | 0.85 ± 0.01 µM | non-competitive | –
15 | COc1cc(OC)cc(-c2cc3cc4c(=O)c(C=O)coc4cc3o2)c1 [Compound 2g, 2-(3,5-Dimethoxyphenyl)-5-oxo-5H-furo[3,2-g]chromene-6-carbaldehyde] | 10.8 ± 0.02 µM | 3.81 | 41.2 ± 0.03 µM | 0.26 | – | – | – | – | – | – | – | –
16 | O=Cc1coc2cc3oc(-c4ccc(F)cc4)cc3cc2c1=O [Compound 2c, 2-(4-Fluorophenyl)-5-oxo-5H-furo[3,2-g]chromene-6-carbaldehyde] | 15.3 ± 0.01 µM | 1.03 | 15.7 ± 0.02 µM | 0.97 | – | – | – | – | – | – | – | –
17 | COc1ccc(-c2cc3cc4c(=O)c(C=NNc5ccc(C(F)(F)F)cc5)coc4cc3o2)cc1 [Compound 3f, 2-(4-Methoxyphenyl)-6-[(4-trifluoromethylphenyl)hydrazonomethyl]furo[3,2-g]chromen-5-one] | 5.4 ± 0.02 µM | 1.78 | 9.6 ± 0.05 µM | 0.56 | – | 25.3 ± 0.04 µM | 23.9 ± 0.04 µM | 8160 ± 20 nM | non-competitive | 5.4 ± 0.04 µM | competitive | 0.013 ± 0.02
18 | COc1cc(OC)cc(-c2cc3cc4c(=O)c(C=NNc5ccc(C(F)(F)F)cc5)coc4cc3o2)c1 [Compound 3g, 2-(3,5-Dimethoxyphenyl)-6-[(4-trifluoromethylphenyl)hydrazonomethyl]furo[3,2-g]chromen-5-one] | 34.9 ± 0.01 µM | 0.89 | 31.2 ± 0.04 µM | 1.12 | – | – | – | – | – | – | – | –
19 | O=Cc1coc2cc3oc(-c4cccc(Cl)c4)cc3cc2c1=O [Compound 2d, 2-(3-Chlorophenyl)-5-oxo-5H-furo[3,2-g]chromene-6-carbaldehyde] | 33.4 ± 0.03 µM | 0.65 | 21.6 ± 0.01 µM | 1.54 | – | – | – | – | – | – | – | –
